Reference: patent publication US7572765B2, “Conformationally constrained parathyroid hormone (PTH) analogs” (The General Hospital Corporation, priority 2001, dated 2009)
Square brackets hold non-standard residues; d marks the D form. Ends that are not written are not given here. Peptide text beside a SMILES is read from it. hArg = N=C(N)NCCCC[C@H](N)C(=O)O; Nle = CCCC[C@H](N)C(=O)O; Aib = CC(C)(N)C(=O)O

Experiments:
human P1R [1] = biological target: T1, human P1R (Homo sapiens, UniProt Q03431); test: Competition binding in HKRK-B28 cells; conditions: for binding of radiolabeled peptide to HKRK-B28 cells (in words): direct binding of the radioligand
T1 construct: expressed in transfected cells; host or cells: HKRK-B28 (porcine kidney LLC-PK1, stably transfected)
T1 sequence (Q03431 27-593): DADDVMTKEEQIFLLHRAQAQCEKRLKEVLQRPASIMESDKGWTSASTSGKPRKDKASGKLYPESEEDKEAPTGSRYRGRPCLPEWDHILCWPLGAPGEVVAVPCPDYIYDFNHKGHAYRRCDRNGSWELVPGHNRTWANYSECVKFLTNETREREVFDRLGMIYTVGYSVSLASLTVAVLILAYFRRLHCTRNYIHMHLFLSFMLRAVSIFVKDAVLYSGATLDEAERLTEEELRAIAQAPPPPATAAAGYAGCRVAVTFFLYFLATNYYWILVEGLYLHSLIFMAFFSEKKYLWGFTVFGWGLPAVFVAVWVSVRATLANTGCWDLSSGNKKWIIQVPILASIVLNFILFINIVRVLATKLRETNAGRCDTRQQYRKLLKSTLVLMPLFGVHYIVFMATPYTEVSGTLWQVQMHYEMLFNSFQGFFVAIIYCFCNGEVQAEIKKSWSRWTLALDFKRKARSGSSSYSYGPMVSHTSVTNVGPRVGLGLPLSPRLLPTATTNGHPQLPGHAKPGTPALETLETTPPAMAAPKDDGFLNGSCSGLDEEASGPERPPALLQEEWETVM
Procedure: (§1) Cell Culture. The cell line HKRK-B28 (Takasu, H., et al., J. Bone Miner. Res. 14:11-20 (1999)) was derived from the porcine kidney cell line, LLC-PK1 by stable transfection with plasmid DNA encoding the human P1R and expresses ˜280,000 receptors per cell. These cells, as well as COS-7 cells and SaOS-2-B10 cells, were cultured at […] in T-75 flasks ([…]) in Dulbecco's modified Eagle's medium (DMEM) supplemented with fetal bovine serum (10%), penicillin G (20 units/ml), streptomycin sulfate (20 μg/ml) and amphotericin B (0.05 μg/ml) in a humidified atmosphere containing 5% CO2. Stock solutions of EGTA/trypsin and antibiotics were from GIBCO; fetal bovine serum was from Hyclone Laboratories (Logan, Utah). COS-7 cells sub-cultured in 24-well plates were transfected with plasmid DNA (200 ng per well) encoding the wild-type human P1R or truncated human P1R deleted for residues (24-181) (Shimizu, M., et al., J. Biol. Chem. 275:21836-21843 (2000)) that was purified by cesium chloride/ethidium bromide density gradient centrifugation, and FuGENE 6 transfection reagent (Roche Indianapolis Ind.) according to the manufacturer's recommended procedure. All cells, in 24-well plates, were treated with fresh media and shifted to 33° C. for 12 to 24 h prior to assay.
Competition Binding. Binding reactions were performed with HKRK-B28 cells or in COS-7 cells in 24-well plates. The cells were rinsed with 0.5 mL of binding buffer, and then treated successively with 100 μL binding buffer, 100 μL of binding buffer containing various amounts of unlabeled competitor ligand, and 100 μL of binding buffer containing ca. 100,000 cpm of ^125I-[M]PTH(1-21) or ^125I-[Aib^1,3,M]PTH(1-21)} (ca. 26 fmol; final volume=300 μL). Incubations were 4 to 6 h at 4° C., at which time near equilibrium conditions were attained. Cells were then placed on ice, the binding medium was removed, and the monolayer was rinsed three times with 0.5 mL of cold binding buffer. The cells were subsequently lysed with 0.5 mL […] and counted for radioactivity. For each tracer and in each experiment, the non-specific binding was determined as the radioactivity that bound in the presence of the same unlabeled peptide at a concentration of 1 μM, and was ˜1% of total radioactivity added for each tracer. The maximum specific binding (B0) was the total radioactivity bound in the absence of competing ligand, corrected for nonspecific binding, and for each tracer, ranged from 8% to 20% of the total radioactivity added. Nonlinear regression was used to calculate binding IC50 values (see below). Scatchard transformations of homologous competition binding data derived from studies with 26 fmol of ^125I-[Aib^1,3,M]PTH(1-21) were employed for estimations of apparent equilibrium dissociation constant (kDapps) and total number of ligand binding sites (Bmax), assuming a single class of binding sites and equal affinities of the iodinated and non iodinated ligand.
(§2) Data Calculation. Calculations were performed using Microsoft® Excel. Nonlinear regression analyses of binding and cAMP dose-response data were performed using the four-parameter equation: yp=Min+[(Max−Min)/(1+(IC50/x)^slope)]. The Excel Solver function was utilized for parameter optimization, as described previously (Carter, P. H., et al., Endocrinology 140: 4972-4981 (1999); Bowen, W. P., and Jerman, J. C., Trends in Pharmacol. Sci. 16: 413-417 (1995)). Differences between paired data sets were statistically evaluated using a one-tailed Student's t-test, assuming unequal variances for the two sets.
The P1R-binding properties of these analogs were assayed in competition studies performed in […]. In previous studies, PTH(1-14) binding could not be detected using ^125I-PTH(1-34) and related N-terminally intact and relatively unmodified radioligands (Luck, M. D., et al., Molecular Endocrinology 13:670-680 (1999)). […]

human P1R [2] = biological target: T1, human P1R; test: cAMP stimulation in HKRK-B28 cells; assay type: cell-based; conditions: for cAMP EMax(obs.): basal 4.0 ± 0.1 pmole/well not subtracted
Procedure: as §1
(§3) cAMP Stimulation. Stimulation of cells with peptide analogs was performed in 24-well plates. Cells were rinsed with 0.5 mL of binding buffer (50 mM Tris-HCI, […], 5 mM KCl, 2 mM CaCl2, 5% heat-inactivated horse serum, 0.5% fetal bovine serum, adjusted to pH 7.5 with HCl) and treated with 200 μL of cAMP assay buffer (Delbecco's modified Eagle's medium containing 2 mM 3-isobutyl-1-methylxanthine, 1 mg/mL bovine serum albumin, 35 mM Hepes-NaOH, pH 7.4) and 100 μL of binding buffer containing varying amounts of peptide analog (final volume=300 μL). The medium was removed after incubation for 30 to 60 minutes at room temperature, and the cells were frozen on dry ice, lysed with 0.5 mL 50 mM HCl, and refrozen ([…]). The cAMP content of the diluted lysate was determined by radioimmunoassay. The EC50 response values were calculated using nonlinear regression (see below).
as §2

[3] = biological target: T2, P1R-delNt, truncated human P1R deleted for residues (24-181) (Homo sapiens, UniProt Q03431); test: cAMP stimulation in COS-7 cells expressing hP1R-delNt; assay type: cell-based; conditions: hP1R-delNT
T2 construct: expressed in transfected cells; host or cells: COS-7 (transient, FuGENE 6)
T2 sequence (Q03431 with tags, fused parts or gaps limits assumed): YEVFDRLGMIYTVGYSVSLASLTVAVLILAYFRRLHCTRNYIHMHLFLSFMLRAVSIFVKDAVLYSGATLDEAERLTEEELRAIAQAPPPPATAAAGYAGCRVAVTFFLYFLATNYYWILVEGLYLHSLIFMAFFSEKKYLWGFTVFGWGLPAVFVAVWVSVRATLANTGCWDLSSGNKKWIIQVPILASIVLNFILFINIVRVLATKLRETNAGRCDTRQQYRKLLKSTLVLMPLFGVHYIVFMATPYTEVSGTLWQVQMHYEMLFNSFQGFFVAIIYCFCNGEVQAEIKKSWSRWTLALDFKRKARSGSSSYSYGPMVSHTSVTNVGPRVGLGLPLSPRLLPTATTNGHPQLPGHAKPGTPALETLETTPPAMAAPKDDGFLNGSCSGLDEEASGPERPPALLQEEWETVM
Procedure: as §1, §3, §2
The possibility that the activity-enhancing effects of the Aib substitutions at positions 1 and 3 were mediated through the juxtamembrane (J) region of the receptor was investigated in COS-7 cells transiently transfected with P1R-delNt. P1R-delNt was a truncated P1R that lacked most of the amino-terminal extracellular domain.

[4] = biological target: T2, P1R-delNt, truncated human P1R deleted for residues (24-181); test: Competition binding in COS-7 cells expressing hP1R-delNt; conditions: direct binding of the radioligand
[5] = HKRK-B28 cells, tracer 125I-[M]PTH(1-21)amide, 4 h at 4° C., N.B. = no binding detected at 10 μm peptide

Row | Compound | Binding IC50 (human P1R [1]; [5]) | EC50 (human P1R [2]) [µM] | cAMP EMax(obs.) (human P1R [2]) [pmole/well] | also measured
1 | CSCC[C@H](NC(=O)[C@H](CC(C)C)NC(=O)[C@H](CCC(N)=O)NC(=O)C(C)(C)NC(=O)[C@H](CCC(=O)O)NC(=O)[C@H](C)NC(=O)[C@@H](NC(=O)[C@H](C)N)C(C)C)C(=O)N[C@@H](Cc1c[nH]cn1)C(=O)N[C@@H](CCC(N)=O)C(=O)N[C@@H](CCCCNC(=N)N)C(=O)N[C@@H](C)C(=O)N[C@@H](CCCCN)C(=O)N[C@@H](Cc1c[nH]c2ccccc12)C(N)=O [Aib-5] (H-AVAE[Aib]QLMHQ[hArg]AKW-NH2) | N.B. | 66 | 169 ± 18 | –
2 | CC[C@H](C)[C@H](NC(=O)[C@H](CCC(=O)O)NC(=O)[C@H](C)NC(=O)[C@@H](NC(=O)[C@H](C)N)C(C)C)C(=O)N[C@@H](CCC(N)=O)C(=O)N[C@@H](CC(C)C)C(=O)NC(C)(C)C(=O)N[C@@H](Cc1c[nH]cn1)C(=O)N[C@@H](CCC(N)=O)C(=O)N[C@@H](CCCCNC(=N)N)C(=O)N[C@@H](C)C(=O)N[C@@H](CCCCN)C(=O)N[C@@H](Cc1c[nH]c2ccccc12)C(N)=O [Aib-8] (H-AVAEIQL[Aib]HQ[hArg]AKW-NH2) | N.B. | – | 34 ± 7 | –
3 | CC[C@H](C)[C@H](NC(=O)[C@H](CCC(=O)O)NC(=O)[C@H](C)NC(=O)[C@@H](NC(=O)[C@H](C)N)C(C)C)C(=O)N[C@@H](CCC(N)=O)C(=O)N[C@@H](CC(C)C)C(=O)N[C@@H](CCSC)C(=O)NC(C)(C)C(=O)N[C@@H](CCC(N)=O)C(=O)N[C@@H](CCCCNC(=N)N)C(=O)N[C@@H](C)C(=O)N[C@@H](CCCCN)C(=O)N[C@@H](Cc1c[nH]c2ccccc12)C(N)=O [Aib-9] (H-AVAEIQLM[Aib]Q[hArg]AKW-NH2) | N.B. | – | 51 ± 8 | –
4 | CC[C@H](C)[C@H](NC(=O)[C@H](CCC(=O)O)NC(=O)[C@H](C)NC(=O)[C@@H](NC(=O)[C@H](C)N)C(C)C)C(=O)N[C@@H](CCC(N)=O)C(=O)N[C@@H](CC(C)C)C(=O)N[C@@H](CCSC)C(=O)N[C@@H](Cc1c[nH]cn1)C(=O)N[C@@H](CCC(N)=O)C(=O)NC(C)(C)C(=O)N[C@@H](C)C(=O)N[C@@H](CCCCN)C(=O)N[C@@H](Cc1c[nH]c2ccccc12)C(N)=O [Aib-11] (H-AVAEIQLMHQ[Aib]AKW-NH2) | N.B. | 67 | 96 ± 18 | –
5 | CC[C@H](C)[C@H](NC(=O)[C@H](CCC(=O)O)NC(=O)C(C)(C)NC(=O)[C@@H](NC(=O)C(C)(C)N)C(C)C)C(=O)N[C@@H](CCC(N)=O)C(=O)N[C@@H](CC(C)C)C(=O)N[C@@H](CCSC)C(=O)N[C@@H](Cc1c[nH]cn1)C(N)=O [[Aib^1,3]PTH(1-9)] (H-[Aib]V[Aib]EIQLMH-NH2) | did not bind detachably | > 10 | 10 ± 1 | Binding IC50 (human P1R [1]; HKRK-B28 cells, tracer 125I-[M]PTH(1-21)amide, 4 h at 4° C., N.B. = no binding detected at 10 μm peptide, listed as [Aib^1,3]PTH (1-9)): N.B.; stimulation of cAMP accumulation (in words) (human P1R [2]): Little or no stimulation of cAMP accumulation
6 | CC[C@H](C)[C@H](NC(=O)[C@H](CCC(=O)O)NC(=O)[C@H](C)NC(=O)[C@@H](NC(=O)[C@H](C)N)C(C)C)C(=O)N[C@@H](CCC(N)=O)C(=O)N[C@@H](CC(C)C)C(=O)N[C@@H](CCSC)C(=O)N[C@@H](Cc1cnc[nH]1)C(=O)N[C@@H](CCC(N)=O)C(=O)N[C@@H](CCCCN=C(N)N)C(=O)N[C@@H](C)C(=O)N[C@@H](CCCCN)C(=O)N[C@@H](Cc1c[nH]c2ccccc12)C(N)=O [[M]PTH(1-14), [Ala^3,12,Gln^10,Har^11,Trp^14]PTH(1-14)amide, reference compound] (H-AVAEIQLMHQ[hArg]AKW-NH2) | – | 0.1 ± 0.02 | – | EC50 [3]: 0.04 ± 0.002 µM; IC50 (human P1R [1]; [5]): 1.3e-05 M
7 | ^125I-[Ala^3,12Nle^8Gln^10,Har^11,Trp^14,Tyr^15]PTH(1-15)amide (AVAEIQL[Nle]HQ[hArg]AKWY-NH2; also: 125I-labeled, place not given here) [reference compound] | – | – | – | binding of radiolabeled peptide to HKRK-B28 cells (in words) (human P1R [1]): did not bind detectably
8 | ^125I-[M]PTH(1-21): radioiodinated [M]PTH(1-21) tracer radioligand (AVAEIQL[Nle]HQ[hArg]AKWLASVRRY-NH2; also: 125I radiolabel, position not given here) [reference compound] | – | – | – | binding of radioligand to P1R-delNt (in words) [4]: did not bind detectably; binding of radiolabeled peptide to HKRK-B28 cells (in words) (human P1R [1]): bound adequately
